TGI data for eight molecules are collected here from PubChem BioAssay (NCI).

Among the test systems are SF-539 CNS; HT29 colon; SF-295 CNS; SK-MEL-2 melanoma; SNB-19 CNS; NCI-H23 lung; IGROV1 ovarian; UO-31 renal; UACC-62 melanoma; SF-268 CNS; CCRF-CEM leukemia; OVCAR-3 ovarian; COLO 205 colon; M14 melanoma; MDA-MB-435; SNB-75 CNS; SK-MEL-28 melanoma; MCF7 breast.
Holding throughout (test): DTP human tumour cell line panel, 48 h

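Values below derive from 48-hour exposures of cells grown in 96-well plates, with endpoints linearly interpolated between the two concentrations bracketing the appropriate inhibition level. The concentration for full growth arrest is given as TGI.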

For orientation: TGI means the concentration at which net growth stops. Turning to `COc1ccc2c(c1)CC[C@@H]1C2CC[C@]2(C)C(=N\O)/C(=N/O)CC12` (stereo partly specified), the total growth inhibition concentration (TGI) stood at 35.1 µM in the experiment on SF-539 CNS; 5.14 µM in the experiment on HT29 colon; 23.9 µM in the experiment with SF-295 CNS; 26.9 µM with SK-MEL-2 melanoma; 32.9 µM in the experiment with SNB-19 CNS; 23.1 µM with NCI-H23 lung. Moreover, the TGI in the experiment with IGROV1 ovarian worked out at 10 µM; in the experiment with UO-31 renal it was 26.5 µM; in the experiment with UACC-62 melanoma it was 26.6 µM; with SF-268 CNS, 37.8 µM; with CCRF-CEM leukemia, 29.9 µM; in the experiment with OVCAR-3 ovarian it was 26.8 µM. Also, the TGI amounted to 31.6 µM in the experiment with COLO 205 colon and 32.9 µM with M14 melanoma.

In the case of `O=C(CC(C(=O)c1cccs1)c1ccsc1)c1ccc(Cl)cc1` (stereo unspecified), the TGI in the experiment with SF-539 CNS, with HT29 colon, with MDA-MB-435, with SF-295 CNS, in the experiment on SK-MEL-2 melanoma and in the experiment with SNB-75 CNS was over 100 µM each time. Besides, the concentration for total growth inhibition (TGI) with SNB-19 CNS, in the experiment on NCI-H23 lung, in the experiment on IGROV1 ovarian, with SK-MEL-28 melanoma, with UO-31 renal and in the experiment with UACC-62 melanoma was over 100 µM each time. In addition, the total growth inhibition concentration (TGI) in the experiment on SF-268 CNS, with CCRF-CEM leukemia, in the experiment with MCF7 breast, in the experiment on COLO 205 colon and in the experiment on M14 melanoma was over 100 µM in each case.

As for `OC1C2CCC3C2CC(C(O)(c2ccccc2)c2ccccc2)C13` (stereo unspecified), the TGI with SF-539 CNS is over 100 µM; with HT29 colon it was over 100 µM; in the experiment on MDA-MB-435 it was over 100 µM; with SF-295 CNS, over 100 µM; in the experiment with SK-MEL-2 melanoma it was 48.2 µM; in the experiment with SNB-75 CNS it was 43.9 µM. For the same molecule, the total growth inhibition concentration (TGI) in the experiment on SNB-19 CNS, in the experiment with NCI-H23 lung, with IGROV1 ovarian, in the experiment on SK-MEL-28 melanoma, in the experiment on UO-31 renal and in the experiment with UACC-62 melanoma was over 100 µM throughout. The TGI in the experiment with SF-268 CNS is over 100 µM; in the experiment with CCRF-CEM leukemia, 95.1 µM; in the experiment with MCF7 breast, over 100 µM; in the experiment on OVCAR-3 ovarian, 87.3 µM; in the experiment on COLO 205 colon, 37.2 µM; in the experiment on M14 melanoma it was over 100 µM.

Regarding `O=S(Nc1ccccc1)c1ccccc1Oc1ccccc1` (stereo unspecified), the total growth inhibition concentration (TGI) was 35.6 µM in the experiment with SF-539 CNS; over 100 µM in the experiment on HT29 colon; over 100 µM in the experiment on MDA-MB-435; over 100 µM with SF-295 CNS; over 100 µM in the experiment with SNB-75 CNS; over 100 µM in the experiment with SNB-19 CNS. The concentration for total growth inhibition (TGI) with NCI-H23 lung is over 100 µM; with IGROV1 ovarian, 12.6 µM; in the experiment with SK-MEL-28 melanoma it was over 100 µM; in the experiment on UO-31 renal, over 100 µM; in the experiment with SF-268 CNS, 62 µM; in the experiment on CCRF-CEM leukemia it was over 100 µM. In addition, the total growth inhibition concentration (TGI) in the experiment with MCF7 breast, in the experiment with OVCAR-3 ovarian, with COLO 205 colon and in the experiment with M14 melanoma was over 100 µM in each case.

For the molecule `ClCCN(CC#CCCCC#CCN(CCCl)CCCl)CCCl`, the TGI was determined as 27 µM in the experiment with SF-539 CNS; 24.8 µM in the experiment with HT29 colon; 28.1 µM in the experiment with SF-295 CNS; 23.4 µM with SK-MEL-2 melanoma; 36.4 µM with SNB-75 CNS; 27.6 µM in the experiment with SNB-19 CNS. Further, the total growth inhibition concentration (TGI) was 29.3 µM with NCI-H23 lung; 35.1 µM in the experiment on IGROV1 ovarian; 38.6 µM in the experiment on SK-MEL-28 melanoma; 47 µM with UO-31 renal; 20 µM in the experiment on UACC-62 melanoma; 33.5 µM in the experiment with SF-268 CNS. The TGI with CCRF-CEM leukemia came to 10.6 µM; in the experiment with MCF7 breast, 37.5 µM; with OVCAR-3 ovarian, 26.7 µM; with COLO 205 colon it was 30.3 µM; in the experiment with M14 melanoma, 28.6 µM.

Turning to `CC(=O)Oc1c(C)cc2c(c1C)C(C)(C)CN2C(=O)C(C)(C)C`, the TGI in the experiment with SF-539 CNS is over 100 µM; in the experiment with HT29 colon, over 100 µM; in the experiment on MDA-MB-435, over 100 µM; with SF-295 CNS, over 100 µM; with SK-MEL-2 melanoma, over 100 µM; in the experiment with SNB-75 CNS, 31 µM. The total growth inhibition concentration (TGI) in the experiment with SNB-19 CNS, with NCI-H23 lung, in the experiment with IGROV1 ovarian, with SK-MEL-28 melanoma, in the experiment with UO-31 renal and in the experiment with UACC-62 melanoma was over 100 µM throughout. Moreover, the total growth inhibition concentration (TGI) in the experiment with SF-268 CNS, with CCRF-CEM leukemia, in the experiment with MCF7 breast, in the experiment with OVCAR-3 ovarian, with COLO 205 colon and in the experiment on M14 melanoma was over 100 µM each time.

Turning to `O=C1OCCC12CN(Cc1ccccc1)N=N2` (stereo unspecified), the TGI with SF-539 CNS, with HT29 colon, in the experiment on MDA-MB-435, in the experiment with SF-295 CNS, in the experiment with SK-MEL-2 melanoma and in the experiment on SNB-19 CNS was over 100 µM each time. The total growth inhibition concentration (TGI) with NCI-H23 lung, with SK-MEL-28 melanoma, in the experiment with UO-31 renal, in the experiment on UACC-62 melanoma, in the experiment on SF-268 CNS and in the experiment with MCF7 breast was over 100 µM throughout. Besides, the TGI with OVCAR-3 ovarian, in the experiment with COLO 205 colon and in the experiment on M14 melanoma was over 100 µM in each case.

Consider `CCOC(=O)C1C(c2ccco2)C2(C#N)C(=N)OC1(C)C2(C#N)C#N` (stereo unspecified), for which the TGI with SF-539 CNS, in the experiment with HT29 colon, with MDA-MB-435, in the experiment with SF-295 CNS, in the experiment on SK-MEL-2 melanoma and in the experiment on SNB-75 CNS was over 100 µM each time. Besides, the TGI with SNB-19 CNS, in the experiment on NCI-H23 lung, with IGROV1 ovarian, in the experiment on UO-31 renal, in the experiment with UACC-62 melanoma and in the experiment on SF-268 CNS was over 100 µM in each case. Besides, the TGI in the experiment on CCRF-CEM leukemia, in the experiment on MCF7 breast, in the experiment on COLO 205 colon and with M14 melanoma was over 100 µM each time.
